{"source": "patent US10064873B2", "about": "“Compounds and compositions for treating HIV with derivatives of Betulin” (GlaxoSmithKline LLC, priority 2011, dated 2018)", "key": {"HIV-1 (strain IIIB)": {"test_system": "HIV-1 (strain IIIB)", "test": "MT4 Cell Antiviral Assay (propidium iodide or MTS readout)", "type": "cell-based", "conditions": "Human immunodeficiency virus 1, IIIB, read-out: expected range of IC50 values (control and standard)"}, "HIV [1]": {"test_system": "HIV", "test": "Standard PBMC assay (0% human serum)", "type": "cell-based", "conditions": "Human immunodeficiency virus 1, PBMC, 168 h, PBMCs, 7 days", "protocol": "Following incubation in both the standard and modified assays, supernatants were assayed for reverse transcriptase (RT) activity and p24 antigen content by ELISA and spectrophotometric analysis at 450 nM."}, "HIV [2]": {"test_system": "HIV", "conditions": "cited from earlier work"}, "HIV-1 strain JR-CSF": {"test_system": "HIV-1 strain JR-CSF", "test": "Modified PBMC (PBL) assay with human serum titration", "type": "cell-based", "conditions": "for IC50: Human immunodeficiency virus 1, PBMC", "experimental": "In this assay, 8×10^6 cells from pooled donors were incubated with virus for 1 hour, followed by centrifugation for 1 hour. Cells were then gently re-suspended and incubated an additional 2 hours."}, "HIV NL4-3 wt": {"test_system": "HIV NL4-3 wt", "test": "MT4 antiviral assay, NL4-3 strain wild type", "type": "cell-based, HIV-1"}, "[3]": {"test_system": "NL4-3 strain with V370A site directed mutant polymorphism", "test": "MT4 antiviral assay, NL4-3 strain with V370A site directed mutant polymorphism", "type": "cell-based, HIV-1", "conditions": "Human immunodeficiency virus 1, NL43, MT4 cells"}, "[4]": {"conditions": "Human immunodeficiency virus 1, NL43, MT4, read-out: EC50 NL4-3 wt (nM)"}}, "note": "Like-named read-outs stand apart in the source and are kept apart here.", "data": [{"smiles": "Cc1cn([C@H]2C[C@H](N=[N+]=[N-])[C@@H](CO)O2)c(=O)[nH]c1=O", "note": "[3′-azido-3′-deoxythymidine]", "values": [{"measurement": "IC50", "setting": "HIV-1 (strain IIIB)", "result": "40 to 120", "unit": "nM"}]}, {"smiles": "C=C(C)[C@@H]1CC[C@]2(C(=O)O)CC[C@]3(C)[C@H](CC[C@@H]4[C@@]5(C)CC[C@H](OC(=O)CC(C)(C)C(=O)O)C(C)(C)[C@@H]5CC[C@]43C)[C@@H]12", "note": "[Bevirimat]", "values": [{"measurement": "IC50", "setting": "HIV [1]", "result": 9.76, "unit": "nM"}, {"measurement": "Cmin target", "setting": "HIV [2]; clinical, McCallister et al. poster 2008", "result": "> 20000", "unit": "ng/mL"}, {"measurement": "mean reduction of HIV viral load", "setting": "HIV [2]; patients with trough levels >=20 μg/mL and no baseline Gag polymorphisms at Q369, V370 or T371", "result": 1.3, "unit": "log10/mL"}, {"measurement": "effect of human serum on IC50 values", "setting": "HIV-1 strain JR-CSF; 10-40% human serum vs standard assay", "result": "large increase in the IC50 values"}, {"measurement": "IC50", "setting": "HIV-1 strain JR-CSF; 10%, 20%, 30% and 40% human serum, unit mM, read-out: IC50 in the presence of human serum", "result": "1380 to 13000", "unit": "nM"}, {"measurement": "fold change in the IC50 value in the presence of 100% serum", "setting": "HIV-1 strain JR-CSF; extrapolated, compared to control experiment", "result": "2,310 fold"}, {"measurement": "EC50", "setting": "HIV NL4-3 wt; Human immunodeficiency virus 1, NL43, MT4 cells, Consensus Clade B Sp1 Genotype, read-out: MT4 NL. wt* EC50", "result": 223, "unit": "nM"}, {"measurement": "EC50", "setting": "HIV NL4-3 wt; Human immunodeficiency virus 1, NL43, MT4 cells, read-out: EC50, MT4 antiviral assay NL4-3 strain / HIV wild type potency", "result": 223, "unit": "nM"}, {"measurement": "EC50", "setting": "[3]; read-out: EC50, MT4 antiviral assay NL4-3 strain with V370A polymorphism", "result": 6060, "unit": "nM"}, {"measurement": "EC50", "setting": "[3]; read-out: MT4 NL. V370A EC50", "result": 6060, "unit": "nM"}]}, {"smiles": "CC(C)C1=C2[C@H]3CC[C@@H]4[C@@]5(C)CC[C@H](OC(=O)CC(C)(C)C(=O)O)C(C)(C)[C@@H]5CC[C@@]4(C)[C@]3(C)CC[C@@]2([C@@H](O)CN(CCN(C)C)Cc2ccc(Cl)cc2)CC1=O", "note": "[Compound 51, 4-(((3aR,5aR,5bR,7aR,9S,11aR,11bR,13aS)-3a-((R)-2-((4-Chlorobenzyl)(2-(dimethylamino)ethyl)amino)-1-hydroxyethyl)-1-isopropyl-5a,5b,8,8,11a-pentamethyl-2-oxo-3,3a,4,5,5a,5b,6,7,7a,8,9,10,11,11a,11b,12,13,13a-octadecahydro-2H-cyclopenta[a]chrysen-9-yl)oxy)-2,2-dimethyl-4-oxobutanoic acid]", "values": [{"measurement": "IC50", "setting": "HIV-1 strain JR-CSF; read-out: estimated IC50 for 100% human serum, linear extrapolation from normalized IC50 values", "result": 0.33, "unit": "nM"}, {"measurement": "IC50", "setting": "HIV-1 strain JR-CSF; 10%, 20%, 30% and 40% human serum, read-out: IC50 in the presence of human serum", "result": "0.52 to 3.07", "unit": "nM"}]}, {"smiles": "CC(C)C1=C2[C@H]3CC[C@@H]4[C@@]5(C)CC[C@H](OC(=O)CC(C)(C)C(=O)O)C(C)(C)[C@@H]5CC[C@@]4(C)[C@]3(C)CC[C@@]2([C@@H](O)CN(CCN(C)C)C(=O)c2ccc(Cl)cc2)CC1=O", "note": "[Example 81, 4-{[(1R,2R,5R,10S,13R,14R, 17S,19R)-5-[(1R)-2-[1-(4-chlorophenyl)-N-[2-(dimethylamino)ethyl] formamido]-1-hydroxyethyl]-1,2,14,18,18-pentamethyl-7-oxo-8-(propan-2-yl)pentacyclo[11.8.0.0^ {2,10}.0^{5,9}.0^{14,19}]henicos-8-en-17-yl]oxy}-2,2-dimethyl-4-oxobutanoic acid]", "values": [{"measurement": "EC50", "setting": "HIV NL4-3 wt; Human immunodeficiency virus 1, NL43, MT4 cells, read-out: EC50 NL4-3 wt", "result": 3, "unit": "nM"}]}, {"smiles": "CC(C)C1=C2[C@H]3CC[C@@H]4[C@@]5(C)CC[C@H](OC(=O)CC(C)(C)C(=O)O)C(C)(C)[C@@H]5CC[C@@]4(C)[C@]3(C)CC[C@@]2(CCNCc2ccccc2Cl)CC1=O", "note": "[Example 82, 4-{[(1R,2R,5R,10S,13R,14R, 17S,19R)-5-(2-{[(2-chlorophenyl)methyl]amino}ethyl)-1,2,14,18,18-pentamethyl-7-oxo-8-(propan-2-yl)pentacyclo[11.8.0.0^ {2,10}.0^{5,9}.0^{14,19}]henicos-8-en-17-yl]oxy}-2,2-dimethyl-4-oxobutanoic acid]", "values": [{"measurement": "EC50", "setting": "HIV NL4-3 wt; [4]", "result": 8.9, "unit": "nM"}]}, {"smiles": "CC(C)C1=C2[C@H]3CC[C@@H]4[C@@]5(C)CC[C@H](OC(=O)CC(C)(C)C(=O)O)C(C)(C)[C@@H]5CC[C@@]4(C)[C@]3(C)CC[C@@]2(CCNC(=O)c2ccccc2)CC1=O", "note": "[Example 83, 2,2-dimethyl-4-oxo-4-{[(1R,2R,5R,10S,13R,14R, 17S,19R)-1,2,14,18,18-pentamethyl-7-oxo-5-[2-(phenylformamido)ethyl]-8-(propan-2-yl)pentacyclo[11.8.0.0^ {2,10}.0^{5,9}.0^{14,19}]henicos-8-en-17-yl]oxy)butanoic acid]", "values": [{"measurement": "EC50", "setting": "HIV NL4-3 wt; [4]", "result": 7.3, "unit": "nM"}]}]}
